Assays:
[1] = Stability of CLF-spiked serum samples after 12 day storage at 2-8° C., CLF ELISA; format: in vitro ADME, human
Method: These conditions were used for all assays described in Phase 2a (above) and Phase 2b (below). See Appendix B and C for buffer and conjugate formulations respectively: • Add 25 μl/well of sample or standard (0-1000 ng/ml CLF in Buffer #24) to the wells of a streptavidin-coated microtitre plate (NovAssay, F2SAC). • Add 100 μl/well of fluorescein-biotin (Sigma B9431) at 20 ng/ml in Buffer #24+0.2% w/v ANS (Sigma 10417). • Add 100 μl/well of anti-fluorescein HRP (NovAssay, DV047/17-3) at 100 ng/ml in Buffer #24. • Incubate the plate for 30 minutes at room temperature. • Wash the plate 3 times with 800 μl/well Buffer #29 and tap the plate dry. • Add 100 μl/well of SureBlue Reserve TMB Substrate (KPL) and incubate the plate for 10 minutes at room temperature. • Stop the substrate reaction by adding 100 μl/well of 1M HCl and read the absorbance at 450 nm wavelength (ThermoFisher Scientific, Multiskan FC).
Sample drift was assessed by using two sera spiked with CLF to 4 levels (62.5, 125, 250 and 500 ng/ml). Each of the samples were added to streptavidin coated wells (in duplicate) soon after the addition of the standards (time 0, in columns 5&6)); after 5 minutes the samples were added to columns 7&8; “5 minute” time point” 5 minutes later in columns 9&10 (“10 minute time point” and 5 minutes later in columns 11&12 (“15 minute time point”). The samples used were prepared 12 days prior to the experiment and were kept at 2-8° C. In addition, some other serum samples that were spiked with CLF at the same time (12 days prior to the assay) were also measured in order to determine the stability of CLF (note: The data obtained are the results of 2 variables (instability of CLF and the recovery) and thus represent a “worst case scenario”.
The level of instability (after 12 day storage at 2-8° C.) was calculated by comparing the results obtained with the expected results.

[2] = Stability of CLF spiked directly in human plasma at room temperature and 4° C. (Test 3), HPLC-MS/MS; format: in vitro ADME; conditions: for CLF concentration: human plasma spiked 100 ng/ml, mean ± SEM (n = 2); for CLF remaining: human plasma, vs To; for percentage of compound remaining (by comparing with content at To), lowest over incubation: plasma, up to 24 h
Method: Test 3: […] The final concentration of CLF was of 100 ng/ml. Two aliquots of 200 μl of plasma spiked with CLF were taken (To) and the remaining solution was divided in 2 equal fractions. One fraction was incubated at room temperature and the second one was incubated at 4° C. Two aliquots of 200 μl were taken from both fractions after 30 min, 120 min and 24 h of incubation. Samples were stored at −70° C. until further analysis. […] Thus, a stock solution of IS at 100 μg/ml in acetonitrile was 50-fold diluted in acetonitrile in order to obtain a final concentration of 2 μg/ml. Then, 200 μl of this solution were added to each plasma sample in order to precipitate the proteins. Samples were vortexed/mixed and centrifuged 5 min at 20,000 g (4° C.). After centrifugation, the clear supernatant (around 250 μl) was transferred into 1.2 ml HPLC glass vials and sealed. Samples were placed into the refrigerated autosampler and 20 μl were injected into the HPLC-MS/MS system. Test samples were injected twice. […] The injected volume of sample was 20 μl and the “full loop” mode was applied. The temperature of the analytical column was kept at 30° C. CLF and its IS were separated on an Acclaim 120 C18 column (5 μm, 2.1×100 mm, Dionex) by elution with a linear gradient of acetonitrile in water as described in Table 6. An ion trap mass spectrometer equipped with an ESI interface was operated in the positive ionization mode. For each compound, the most abundant ion formed in MS was selected for MS/MS fragmentations. In order to increase the sensitivity and the specificity of the method, the MRM mode was selected. The most specific daughter ions formed in MS/MS were used for quantification.

[3] = 12 day storage at 2-8° C., pool1, Expected 125 ng/ml
[4] = 12 day storage at 2-8° C., pool2, Expected 31.25 ng/ml
[5] = 12 day storage at 2-8° C., pool3, Expected 500 ng/ml
[6] = 12 day storage at 2-8° C., sample 5876, Expected 1000 ng/ml
[7] = 12 day storage at 2-8° C., sample 5881, Expected 1000 ng/ml
[8] = 12 day storage at 2-8° C., sample 5883, Expected 500 ng/ml
[9] = 12 day storage at 2-8° C., sample 5883, Expected 1000 ng/ml
[10] = 12 day storage at 2-8° C., sample 5884, Expected 62.5 ng/ml
[11] = 12 day storage at 2-8° C., sample 5884, Expected 125 ng/ml
[12] = 12 day storage at 2-8° C., sample 5884, Expected 250 ng/ml
[13] = 12 day storage at 2-8° C., sample 5884, Expected 500 ng/ml
[14] = 12 day storage at 2-8° C., sample 5885, Expected 62.5 ng/ml
[15] = 12 day storage at 2-8° C., sample 5885, Expected 125 ng/ml
[16] = 12 day storage at 2-8° C., sample 5885, Expected 250 ng/ml
[17] = 12 day storage at 2-8° C., sample 5885, Expected 500 ng/ml
[18] = 12 day storage at 2-8° C., sample 5885, Expected 1000 ng/ml
[19] = room temperature (25 ± 2° C.), 0.0 hours
[20] = room temperature (25 ± 2° C.), 0.5 hours
[21] = room temperature (25 ± 2° C.), 2.0 hours
[22] = room temperature (25 ± 2° C.), 24.0 hours

With `CC(CCC(=O)NC(CCCCNC(=S)Nc1ccc(-c2c3ccc(=O)cc-3oc3cc(O)ccc23)c(C(=O)O)c1)C(=O)O)C1CCC2C3C(O)CC4CC(O)CCC4(C)C3CC(O)C12C` [CLF, Cholyl-L-Lysyl-Fluorescein] the “Difference, mean” value ([1]; 12 day storage at 2-8° C., mean of all samples) was −27%, the Difference [1, 3] was −39% and the observed [1, 3] was 76 ng/mL. For the same molecule, the Difference [1, 4] was −14%, the observed [1, 4] was 27 ng/mL and the Difference [1, 5] was −27%. The observed [1, 5] was 365 ng/mL, the Difference [1, 6] was −24% and the observed [1, 6] was 756 ng/mL. The Difference [1, 7] was −18%, the observed [1, 7] was 820 ng/mL and the Difference [1, 8] was −25%. For the same molecule, the observed [1, 8] was 375 ng/mL, the Difference [1, 9] was −10% and the observed [1, 9] was 903 ng/mL. The Difference [1, 10] was −29%, the observed [1, 10] was 44 ng/mL and the Difference [1, 11] was −36%. For the same molecule, the observed [1, 11] was 80 ng/mL, the Difference [1, 12] was −39% and the observed [1, 12] was 153 ng/mL. For the same molecule, the Difference [1, 13] was −32%, the observed [1, 13] was 340 ng/mL and the Difference [1, 14] was −27%. It also gave an observed [1, 14] of 46 ng/mL, a Difference [1, 15] of −33% and an observed [1, 15] of 84 ng/mL. It also gave a Difference [1, 16] of −29%, an observed [1, 16] of 177 ng/mL and a Difference [1, 17] of −24%. For the same molecule, the observed [1, 17] was 379 ng/mL, the Difference [1, 18] was −20% and the observed [1, 18] was 804 ng/mL. The “reduction in measured CLF (mean)” value ([1]; samples kept at 2-8 C. for 12 days) was 27%) occurs when samples are kept, the “reduction in measured CLF (mean)” value ([1]; spiked serum samples kept at 2-8° C. for 12 days, vs expected) was 27% and the “CLF stability directly in plasma” value ([2]; 4° C. and room temperature, 24 h) was “stable for 24 h”. The CLF concentration ([2]; 4° C., 0.0 hours) was 101.9 ± 4.6 ng/mL, the CLF concentration ([2]; 4° C., 0.5 hours) was 101.4 ± 3.5 ng/mL and the CLF concentration ([2]; 4° C., 2.0 hours) was 89.9 ± 3.4 ng/mL. The CLF concentration ([2]; 4° C., 24.0 hours) was 94.5 ± 3.6 ng/mL, the CLF concentration [2, 19] was 101.9 ± 4.6 ng/mL and the CLF concentration [2, 20] was 85.3 ± 0.0 ng/mL. It also gave a CLF concentration [2, 21] of 93.2 ± 0.0 ng/mL, a CLF concentration [2, 22] of 100.7 ± 3.3 ng/mL and a CLF remaining ([2]; 4° C., 0.0 hours) of 100.0%. For the same molecule, the CLF remaining ([2]; 4° C., 0.5 hours) was 99.5%, the CLF remaining ([2]; 4° C., 2.0 hours) was 88.2% and the CLF remaining ([2]; 4° C., 24.0 hours) was 92.7%. For the same molecule, the CLF remaining [2, 19] was 100.0%, the CLF remaining [2, 20] was 83.7% and the CLF remaining [2, 21] was 91.4%. For the same molecule, the CLF remaining [2, 22] was 98.8%, the plasmatic concentrations measured ([2]; plasma spiked with 100 ng/ml, 4° C. and room temperature, 0-24 h) was 85.3 to 101.9 ng/mL and the “percentage of compound remaining (by comparing with content at To), lowest over incubation” value ([2]; 4° C.) was ≥ 88.2%. The “percentage of compound remaining (by comparing with content at To), lowest over incubation” value ([2]; room temperature) was “at least 83.7%”.

Source: patent US20150212068A1, “Cholyl-L-Lysyl-Fluorescein Assay” (Novassay SA, priority 2012, published 2015)
